The source of these data is US8664379B2, “Fused heterocyclic compounds as ion channel modulators” (Gilead Sciences, Inc., priority 2008, dated 2014).

This assay concerns the target wild-type human cardiac sodium channel, hNav1.5 (late sodium current) (Homo sapiens, UniProt Q14524). Kind of assay: Late INa screening assay (PatchXpress whole cell patch clamp). As to conditions: HEK293 cells expressing hNav1.5, late INa generated with 10 μM Tefluthrin (some experiments 50 nM ATX II); for inhibition at 10 µM: HEK293, 10 μM test compound, read-out: Late INa % blk (10 μM test cmpd); for Late INa % blk (1 μM test cmpd): 1 μM test compound. Format: cell-based. How it is done:
The late sodium current (Late INa) and peak sodium current (Peak INa) assays were performed on an automated electrophysiology platform, PatchXpress 7000A (MDS Analytical Technologies, Sunnyvale, Calif.), which uses the whole cell patch clamp technique to measure currents through the cell membrane of up to 16 cells at a time. The assay used an HEK293 (human embryonic kidney) cell line heterologously expressing the wild-type human cardiac sodium channel, hNav1.5, purchased from Millipore (Billerica, Mass.). No beta subunits were coexpressed with the Na channel alpha subunit. Cells were maintained with standard tissue culture procedures and stable channel expression was maintained with 400 μg/ml Geneticin in the culture medium. Cells isolated for use on PatchXpress were incubated for 5 minutes in Versene 1× and then for 2 minutes in 0.0125% Trypsin-EDTA (both at 37° C.) to ensure that 80-90% of the cells are single and not part of a cell cluster. Experiments were carried out at 24-27° C.
For both the Late INa and Peak INa assays, series resistance compensation was set to 50% and whole-cell compensation was performed automatically. Currents were low-pass filtered at 10 kHz and digitized at 31.25 kHz. Currents through open sodium channels were automatically recorded and stored in the DataXpress2 database (MDS Analytical Technologies, Sunnyvale, Calif.). Analysis was performed using DataXpress2 analysis software and data are compiled in Excel.
Compound stocks were routinely made in glass vials to 10 mM in dimethyl sulfoxide (DMSO). In some cases, when compounds were not soluble in DMSO, they were made in 100% ethanol. Stocks were sonicated as necessary. The extracellular solution for screening Late INa was composed of: 140 mM NaCl, 4 mM KCl, 1.8 mM CaCl2, 0.75 mM MgCl2, and 5 mM HEPES with pH adjusted to 7.4 using NaOH. The extracellular solution for screening Peak INa was composed of: 20 mM NaCl, 120 mM N-methyl-D glucamine, 4 mM KCl, 1.8 mM CaCl2, 0.75 mM MgCl2, and 5 mM HEPES with pH adjusted to 7.4 using HCl. The intracellular solution used to perfuse the inside of the cells for both the Late INa and Peak INa assays contains: 120 mM CsF, 20 mM CsCl, 5 mM EGTA, 5 mM HEPES and pH adjusted to 7.4 with CsOH. Compounds were diluted in extracellular solution to 10 μM in glass vials and then transferred to glass well plates before robotic addition to the cells. The 0Na extracellular solution used at the end of each experiment for the Late INa and Peak INa assays to measure baseline current contained: 140 mM N-methyl-D-glucamine; 4 mM KCl; 1.8 mM CaCl2; 0.75 mM MgCl2; 5 mM HEPES and pH was adjusted to 7.4 with HCl.
For the Late INa assay, sodium channels were activated every 10 seconds (0.1 Hz) by depolarizing the cell membrane to −20 mV for 250 milliseconds (ms) from a holding potential of −120 mV. In response to a −20 mV voltage step, typical Nav1.5 sodium currents activated rapidly to a peak negative current and then inactivated nearly completely within 3-4 ms.
All compounds were tested to determine their activity in blocking the late sodium current. Late INa current is generated by adding 10 μM Tefluthrin (pyrethroid) to the extracellular solution while recording Na currents. For some experiments, 50 nM ATX II (sea anemone toxin), another late INa activator, was used to generate the late component. Both activators generate late components that are large enough that block of the late component by compounds can be measured easily. For the purposes of the screening, late INa is defined as the mean current between 225 ms and 250 ms after stepping to −20 mV to activate Na channels. After establishing the whole cell recording configuration, late INa activators were added to each well 4 times over a 16-17 minute period so that the late component of the Na current reached a stable value. Compounds were then added (typically at 10 μM), in the presence of late INa activator, with 3 additions over the course of 7 or 8 minutes. […]
(Patch clamp records ionic current or voltage across a cell membrane.)

wild-type human cardiac sodium channel, hNav1.5 (late sodium current), sequence (Q14524 whole entry): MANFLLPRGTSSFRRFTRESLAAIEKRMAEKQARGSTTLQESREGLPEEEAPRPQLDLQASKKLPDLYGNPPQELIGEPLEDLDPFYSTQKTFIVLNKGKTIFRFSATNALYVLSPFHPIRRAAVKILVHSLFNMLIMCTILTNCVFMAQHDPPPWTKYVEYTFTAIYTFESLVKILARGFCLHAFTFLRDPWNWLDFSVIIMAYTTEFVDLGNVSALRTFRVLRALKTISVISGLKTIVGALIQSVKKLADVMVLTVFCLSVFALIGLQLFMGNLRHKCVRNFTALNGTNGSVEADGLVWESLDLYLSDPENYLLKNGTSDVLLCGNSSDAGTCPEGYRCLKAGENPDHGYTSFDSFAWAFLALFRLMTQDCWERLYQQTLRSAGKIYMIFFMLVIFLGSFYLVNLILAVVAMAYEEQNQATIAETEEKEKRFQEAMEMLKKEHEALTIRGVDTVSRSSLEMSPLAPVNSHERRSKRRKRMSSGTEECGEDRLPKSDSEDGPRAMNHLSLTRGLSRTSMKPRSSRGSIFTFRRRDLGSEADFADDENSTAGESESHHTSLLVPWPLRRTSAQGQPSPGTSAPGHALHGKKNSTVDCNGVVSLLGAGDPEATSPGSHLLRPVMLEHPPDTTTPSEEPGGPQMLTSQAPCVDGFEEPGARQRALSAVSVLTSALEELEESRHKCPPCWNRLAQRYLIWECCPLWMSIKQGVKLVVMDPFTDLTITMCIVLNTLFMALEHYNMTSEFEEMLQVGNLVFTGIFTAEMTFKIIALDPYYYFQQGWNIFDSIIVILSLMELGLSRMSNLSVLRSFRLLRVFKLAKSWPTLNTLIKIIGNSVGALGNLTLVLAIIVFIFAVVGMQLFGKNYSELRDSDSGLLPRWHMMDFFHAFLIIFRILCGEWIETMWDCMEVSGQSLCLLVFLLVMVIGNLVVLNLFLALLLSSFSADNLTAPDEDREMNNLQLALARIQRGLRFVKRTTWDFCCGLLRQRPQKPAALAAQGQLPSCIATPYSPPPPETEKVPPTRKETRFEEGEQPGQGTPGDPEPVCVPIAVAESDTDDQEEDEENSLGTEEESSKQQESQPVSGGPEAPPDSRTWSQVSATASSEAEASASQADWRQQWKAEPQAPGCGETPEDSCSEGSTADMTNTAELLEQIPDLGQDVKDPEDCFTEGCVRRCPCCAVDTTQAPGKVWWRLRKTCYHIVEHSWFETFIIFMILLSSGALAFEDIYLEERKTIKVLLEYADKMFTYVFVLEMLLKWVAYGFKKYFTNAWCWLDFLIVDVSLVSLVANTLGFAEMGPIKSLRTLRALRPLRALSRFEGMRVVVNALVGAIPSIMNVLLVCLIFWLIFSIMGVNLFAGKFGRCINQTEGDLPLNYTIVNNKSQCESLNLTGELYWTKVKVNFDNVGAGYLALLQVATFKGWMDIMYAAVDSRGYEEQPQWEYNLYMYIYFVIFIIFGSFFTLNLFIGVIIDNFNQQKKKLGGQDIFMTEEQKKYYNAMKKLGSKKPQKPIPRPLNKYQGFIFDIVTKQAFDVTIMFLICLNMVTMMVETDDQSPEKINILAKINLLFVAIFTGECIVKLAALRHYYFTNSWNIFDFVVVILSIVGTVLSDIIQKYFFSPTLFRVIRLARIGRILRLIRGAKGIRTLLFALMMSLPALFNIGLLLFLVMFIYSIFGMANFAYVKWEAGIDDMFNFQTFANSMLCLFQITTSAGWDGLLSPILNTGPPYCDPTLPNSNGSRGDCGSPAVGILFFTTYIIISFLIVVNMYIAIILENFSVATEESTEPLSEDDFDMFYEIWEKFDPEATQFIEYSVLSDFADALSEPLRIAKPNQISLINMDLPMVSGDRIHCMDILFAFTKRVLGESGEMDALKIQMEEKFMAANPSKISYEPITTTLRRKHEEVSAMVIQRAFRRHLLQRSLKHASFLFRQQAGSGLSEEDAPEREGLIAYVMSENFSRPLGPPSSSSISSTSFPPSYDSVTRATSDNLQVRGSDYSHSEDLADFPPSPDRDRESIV

On to `CC(C)(C)c1nc(CN2C(=O)CCc3cc(-c4ccc(F)cc4)ccc32)no1` [Compound 35, 1-[(5-tert-butyl-1,2,4-oxadiazol-3-yl)methyl]-6-(4-fluorophenyl)-3,4-dihydroquinolin-2(1H)-one], for which the inhibition at 10 µM came out at 69%.

With `O=C1CCc2cc(-c3ccc(Cl)c(C(F)(F)F)c3)ccc2N1` [Compound 10, 6-[4-chloro-3-(trifluoromethyl)phenyl]-3,4-dihydroquinolin-2(1H)-one], the “Late INa % blk (1 μM test cmpd)” value stood at 40% and the inhibition at 10 µM worked out at 66%.

As for `CC(C)(C)OC(=O)CN1C(=O)CCc2cc(-c3ccc(C(F)(F)F)cc3)ccc21` [Compound 45, tert-butyl {2-oxo-6-[4-(trifluoromethyl)phenyl]-3,4-dihydroquinolin-1(2H)-yl}acetate], the “Late INa % blk (10 μM test cmpd)” value (10 μM test compound) amounted to 64%.

On to `O=C(O)CN1C(=O)CCc2cc(-c3ccc(C(F)(F)F)c(F)c3)ccc21` [Compound 74, 2-(6-(3-fluoro-4-(trifluoromethyl)phenyl)-2-oxo-3,4-dihydroquinolin-1(2H)-yl)acetic acid], for which the inhibition at 10 µM was 20%.

Take `O=C1CCc2cc(-c3ccc(F)cc3F)ccc2N1` [Compound 11, 6-(2,4-difluorophenyl)-3,4-dihydroquinolin-2(1H)-one]: the inhibition at 10 µM worked out at 54%.

For `CCOC(=O)CN1C(=O)CCc2cc(-c3cccc(OC(F)(F)F)c3)ccc21` [Compound 24, ethyl {2-oxo-6-[3-(trifluoromethoxy)phenyl]-3,4-dihydroquinolin-1(2H)-yl}acetate], the “Late INa % blk (1 μM test cmpd)” value was 44% and the inhibition at 10 µM was 74%.

In the case of `COc1c(-c2ccc(Cl)cc2)cc2c(c1-c1ccc(Cl)cc1)N(CC(=O)O)C(=O)CC2` [Compound 81, 2-(6,8-bis(4-chlorophenyl)-7-methoxy-2-oxo-3,4-dihydroquinolin-1(2H)-yl)acetic acid], the inhibition at 10 µM came out at 30%.

As to `NC(=O)CN1C(=O)CCc2cc(-c3ccc(C(F)(F)F)cc3)ccc21` [Compound 56, 2-{2-oxo-6-[4-(trifluoromethyl)phenyl]-3,4-dihydroquinolin-1(2H)-yl}acetamide], the inhibition at 10 µM is 14%.

For the compound `COc1cc2c(cc1-c1ccc(Cl)cc1)CCC(=O)N2CC(=O)O` [Compound 80, 2-(6-(4-chlorophenyl)-7-methoxy-2-oxo-3,4-dihydroquinolin-1(2H)-yl)acetic acid], the inhibition at 10 µM is 17%.

Take `CC(C)(C)OC(=O)CN1C(=O)CCc2cc(-c3ccc(Cl)c(C(F)(F)F)c3)ccc21` [Compound 67, tert-butyl {6-[4-chloro-3-(trifluoromethyl)phenyl]-2-oxo-3,4-dihydroquinolin-1(2H)-yl}acetate]: the inhibition at 10 µM was 74%.

As for `O=C1CCc2cc(-c3cccc(C(F)(F)F)c3)ccc2N1` [Compound 13, 6-[3-(trifluoromethyl)phenyl]-3,4-dihydroquinolin-2(1H)-one], the inhibition at 10 µM is 70%.

`N#Cc1cccc(-c2ccc3c(c2)CCC(=O)N3)c1` [Compound 41, 3-(2-oxo-1,2,3,4-tetrahydroquinolin-6-yl)benzonitrile]: the inhibition at 10 µM was found to be 12%.

Turning to `CC(C)(C)OC(=O)CN1C(=O)CCc2cc(-c3ccc(F)cc3)ccc21` [Compound 33, tert-butyl [6-(4-fluorophenyl)-2-oxo-3,4-dihydroquinolin-1(2H)-yl]acetate], the “Late INa % blk (1 μM test cmpd)” value was determined as 38.1% and the inhibition at 10 µM worked out at 77%.

For the compound `CCOC(=O)CN1C(=O)CCc2cc(-c3ccc(C(F)(F)F)cc3)ccc21` [Compound 54, ethyl {2-oxo-6-[4-(trifluoromethyl)phenyl]-3,4-dihydroquinolin-1(2H)-yl}acetate], the inhibition at 10 µM was 13%.

For the compound `O=C1CCc2cc(-c3ccc(Oc4ccccc4)cc3)ccc2N1` [Compound 38, 6-(4-phenoxyphenyl)-3,4-dihydroquinolin-2(1H)-one], the inhibition at 10 µM is 53%.

As for `O=C1CCc2cc(-c3ccc(OC(F)(F)F)cc3)ccc2N1Cc1cccnc1` [Compound 37, 1-(pyridin-3-ylmethyl)-6-[4-(trifluoromethoxy)phenyl]-3,4-dihydroquinolin-2(1H)-one], the inhibition at 10 µM was 19%.

As for `O=C1CCc2cc(-c3ccc(C(F)(F)F)cc3)ccc2N1` [Compound 9, 6-[4-(trifluoromethyl)phenyl]-3,4-dihydroquinolin-2(1H)-one], the inhibition at 10 µM is 62%.

On to `COc1cc2c(cc1-c1ccc(C(F)(F)F)c(F)c1)CCC(=O)N2` [Compound 82, 6-(3-fluoro-4-(trifluoromethyl)phenyl)-7-methoxy-3,4-dihydroquinolin-2(1H)-one], for which the inhibition at 10 µM was found to be 54%.

In the case of `CC1(C)CC(=O)Nc2ccc(-c3ccc(C(F)(F)F)cc3)cc21` [Compound 42, 4,4-dimethyl-6-[4-(trifluoromethyl)phenyl]-3,4-dihydroquinolin-2(1H)-one], the inhibition at 10 µM stood at 19%.

Regarding `NC(=O)CN1C(=O)CCc2cc(-c3ccc(F)cc3F)ccc21` [Compound 55, 2-[6-(2,4-difluorophenyl)-2-oxo-3,4-dihydroquinolin-1(2H)-yl]acetamide], the inhibition at 10 µM is 14%.

As for `CC(C)(C)OC(=O)CN1C(=O)CCc2cc(-c3ccc(F)cc3F)ccc21` [Compound 30, tert-butyl [6-(2,4-difluorophenyl)-2-oxo-3,4-dihydroquinolin-1(2H)-yl]acetate], the “Late INa % blk (1 μM test cmpd)” value was found to be 47.9% and the inhibition at 10 µM was 86%.

As to `CC(=O)c1cccc(-c2ccc3c(c2)CCC(=O)N3)c1` [Compound 8, 6-(3-acetylphenyl)-3,4-dihydroquinolin-2(1H)-one], the inhibition at 10 µM was 22%.

Turning to `N#CCN1C(=O)CCc2cc(-c3ccc(C(F)(F)F)cc3)ccc21` [Compound 90, 2-(2-oxo-6-(4-(trifluoromethyl)phenyl)-3,4-dihydroquinolin-1(2H)-yl)acetonitrile], the inhibition at 10 µM came to 22%.

Consider `O=C1CCc2cc(-c3ccccc3F)ccc2N1` [Compound 7, 6-(2-fluorophenyl)-3,4-dihydroquinolin-2(1H)-one], for which the inhibition at 10 µM was found to be 52%.

Regarding `O=C1CCc2cc(-c3ccc(F)cc3F)ccc2N1CC(F)(F)F` [Compound 28, 6-(2,4-difluorophenyl)-1-(2,2,2-trifluoroethyl)-3,4-dihydroquinolin-2(1H)-one], the inhibition at 10 µM was found to be 18%.

With `COc1cc2c(cc1-c1ccc(C(F)(F)F)cc1)CCC(=O)N2CC(=O)O` [Compound 79, 2-(7-methoxy-2-oxo-6-(4-(trifluoromethyl)phenyl)-3,4-dihydroquinolin-1(2H)-yl)acetic acid], the inhibition at 10 µM was determined as 12%.

As to `COC(=O)c1ccc(CN2C(=O)CCc3cc(-c4ccc(C(F)(F)F)cc4)ccc32)cc1` [Compound 87, methyl 4-((2-oxo-6-(4-(trifluoromethyl)phenyl)-3,4-dihydroquinolin-1(2H)-yl)methyl)benzoate], the inhibition at 10 µM was found to be 20%.

With `N#Cc1ccc(-c2ccc3c(c2)CCC(=O)N3)cc1` [Compound 5, 4-(2-oxo-1,2,3,4-tetrahydroquinolin-6-yl)benzonitrile], the inhibition at 10 µM came out at 30%.

Regarding `N#Cc1cc(-c2ccc3c(c2)CCC(=O)N3)ccc1F` [Compound 12, 2-fluoro-5-(2-oxo-1,2,3,4-tetrahydroquinolin-6-yl)benzonitrile], the inhibition at 10 µM was 27%.
